Results published in patent US20240279236A1, “COMPOUNDS AND METHODS OF TREATING TUBERCULOSIS” (Fimbrion Therapeutics, Inc., priority 2021, published 2024).

Each molecule was assayed on WT Mtb Erdman strain (assay: Microplate Alamar Blue Assay (MABA), Mtb growth inhibition). Conditions: Mycobacterium tuberculosis, ERDMAN, 168 h, Middlebrook 7H9 media, 7 days at 37° C. in 5% CO2.
Type: cell-based, Mycobacterium tuberculosis
With `COC(=O)c1ccc(-c2ccc(CCCNc3nc(-c4ccoc4)nc4sc(C)cc34)cc2)cc1` [Example 318, methyl 4′-(3-((2-(furan-3-yl)-6-methylthieno[2,3-d]pyrimidin-4-yl)amino)propyl)-[1,1′-biphenyl]-4-carboxylate] the IC50 was 20 nM. `Cc1cc2c(NCCCc3ccc(-c4ccc(F)cc4)cc3)nc(-c3ccoc3)nc2s1` [Example 322, N-(3-(4′-fluoro-[1,1′-biphenyl]-4-yl)propyl)-2-(furan-3-yl)-6-methylthieno[2,3-d]pyrimidin-4-amine] showed an IC50 of 6 nM. In the case of `Cc1cc2c(NC/C=C/c3ccc(-c4ccc(OC(F)(F)F)cc4)cc3)nc(-c3ccoc3)nc2s1` [Example 323, 2-(furan-3-yl)-6-methyl-N-[(2E)-3-[4′-(trifluoromethoxy)-[1,1′-biphenyl]-4-yl]prop-2-en-1-yl]thieno[2,3-d]pyrimidin-4-amine], the IC50 is reported as 37 nM. Work on `Cc1cc2c(NCCCc3ccc(-c4ccnc(C(F)(F)F)c4)cc3)nc(-c3ccoc3)nc2s1` [Example 324, 2-(furan-3-yl)-6-methyl-N-(3-(4-[2-(trifluoromethyl)pyridin-4-yl]phenyl)propyl) thieno[2,3-d]pyrimidin-4-amine] yielded an IC50 of 160 nM. For `Cc1cc2c(NCCCc3ccc(-c4ccc(N(C)C)cc4)cc3)nc(-c3ccoc3)nc2s1` [Example 325, N-(3-[4′-(dimethylamino)-[1,1′-biphenyl]-4-yl]propyl)-2-(furan-3-yl)-6-methylthieno[2,3-d]pyrimidin-4-amine], the IC50 was 10 nM. Molecule `Cc1cc2c(NCCCc3ccc(-c4ccc(OC5CC5)cc4)cc3)nc(-c3ccoc3)nc2s1` [Example 326, N-(3-(4′-cyclopropoxy-[1,1′-biphenyl]-4-yl)propyl)-2-(furan-3-yl)-6-methylthieno[2,3-d]pyrimidin-4-amine] has an IC50 of 15 nM. `Cc1cc2c(NCCCc3ccc(-c4cccc(C#N)c4)cc3)nc(-c3ccoc3)nc2s1` [Example 327, 4′-(3-([2-(furan-3-yl)-6-methylthieno[2,3-d]pyrimidin-4-yl]amino)propyl)-[1,1′-biphenyl]-3-carbonitrile] gave an IC50 of 100 nM. Work on `Cc1cc2c(NCCCc3ccc(-c4ccc([N+](=O)[O-])cc4)cc3)nc(-c3ccoc3)nc2s1` [Example 328, 2-(furan-3-yl)-6-methyl-N-(3-(4′-nitro-[1,1′-biphenyl]-4-yl)propyl)thieno [2,3-d]pyrimidin-4-amine] yielded an IC50 of less than 1 nM. Molecule `Cc1cc2c(NCCCc3ccc(-c4ccc5c(ccn5C)c4)cc3)nc(-c3ccoc3)nc2s1` [Example 329, 2-(furan-3-yl)-6-methyl-N-(3-[4-(1-methyl-1H-indol-5-yl)phenyl]propyl) thieno[2,3-d]pyrimidin-4-amine] has an IC50 of 34 nM. With `Cc1cc2c(NCCCc3ccc(-c4cccs4)cc3)nc(-c3ccoc3)nc2s1` [Example 330, 2-(furan-3-yl)-6-methyl-N-(3-[4-(thiophen-2-yl)phenyl]propyl) thieno[2,3-d]pyrimidin-4-amine] the IC50 was less than 5 nM. With `Cc1cc2c(NCCCc3ccc(-c4cc(F)c(Cl)c(F)c4)cc3)nc(-c3ccoc3)nc2s1` [Example 331, N-(3-(4′-chloro-3′,5′-difluoro-[1,1′-biphenyl]-4-yl)propyl)-2-(furan-3-yl)-6-methylthieno[2,3-d]pyrimidin-4-amine] the IC50 was 30 nM. With `Cc1cc2c(NCCCc3ccc(-c4cnoc4)cc3)nc(-c3ccoc3)nc2s1` [Example 332, 2-(furan-3-yl)-6-methyl-N-(3-[4-(1,2-oxazol-4-yl)phenyl]propyl) thieno[2,3-d]pyrimidin-4-amine] the IC50 was 80 nM. Work on `C#Cc1ccc(-c2ccc(CCCNc3nc(-c4ccoc4)nc4sc(C)cc34)cc2)cc1` [Example 333, N-(3-(4′-ethynyl-[1,1′-biphenyl]-4-yl)propyl)-2-(furan-3-yl)-6-methylthieno[2,3-d]pyrimidin-4-amine] yielded an IC50 of 12 nM. `Cc1cc2c(NCCCc3ccc(-c4ccsc4)cc3)nc(-c3ccoc3)nc2s1` [Example 334, 2-(furan-3-yl)-6-methyl-N-(3-[4-(thiophen-3-yl)phenyl]propyl) thieno[2,3-d]pyrimidin-4-amine] showed an IC50 of 8 nM. Molecule `Cc1ccc(-c2ccc(CCCNc3nc(-c4ccoc4)nc4sc(C)cc34)cc2)o1` [Example 335, 2-(furan-3-yl)-6-methyl-N-(3-[4-(5-methylfuran-2-yl)phenyl]propyl) thieno[2,3-d]pyrimidin-4-amine] has an IC50 of 87 nM. With `Cc1ccc(-c2ccc(CCCNc3nc(-c4ccoc4)nc4sc(C)cc34)cc2)s1` [Example 336, 2-(furan-3-yl)-6-methyl-N-(3-[4-(5-methylthiophen-2-yl)phenyl]propyl)thieno[2,3-d]pyrimidin-4-amine] the IC50 was 15 nM. `Cc1cc2c(NCCCc3ccc(-c4ccco4)cc3)nc(-c3ccoc3)nc2s1` [Example 337, N-(3-[4-(furan-2-yl)phenyl]propyl)-2-(furan-3-yl)-6-methylthieno[2,3-d]pyrimidin-4-amine] showed an IC50 of 31 nM. Molecule `Cc1cc2c(NCCCc3ccc(-c4ccoc4)cc3)nc(-c3ccoc3)nc2s1` [Example 338, 2-(furan-3-yl)-N-(3-[4-(furan-3-yl)phenyl]propyl)-6-methylthieno[2,3-d]pyrimidin-4-amine] has an IC50 of 15 nM. `Cc1cc2c(NCCCc3ccc(-c4ccc(C(F)(F)F)cc4)cc3)nc(-c3ccoc3)nc2s1` [Example 339, 2-(furan-3-yl)-6-methyl-N-(3-[4′-(trifluoromethyl)-[1,1′-biphenyl]-4-yl]propyl)thieno [2,3-d]pyrimidin-4-amine] showed an IC50 of less than 15 nM. `Cc1cc2c(NCCCc3ccc(-c4cccc([N+](=O)[O-])c4)cc3)nc(-c3ccoc3)nc2s1` [Example 340, 2-(furan-3-yl)-6-methyl-N-(3-(3′-nitro-[1,1′-biphenyl]-4-yl)propyl)thieno [2,3-d]pyrimidin-4-amine] showed an IC50 of 25 nM. With `Cc1cc2c(NCCCc3ccc(-c4ccc(C(C)(C)O)cc4)cc3)nc(-c3ccoc3)nc2s1` [Example 341, 2-[4′-(3-([2-(furan-3-yl)-6-methylthieno[2,3-d]pyrimidin-4-yl]amino)propy1)-[1,1′-biphenyl]-4-yl]propan-2-ol] the IC50 was 140 nM. With `Cc1cc2c(NCCCc3ccc(-c4ccc5nonc5c4)cc3)nc(-c3ccoc3)nc2s1` [Example 343, N-(3-[4-(2,1,3-benzoxadiazol-5-yl)phenyl]propyl)-2-(furan-3-yl)-6-methylthieno[2,3-d]pyrimidin-4-amine] the IC50 was less than 15 nM. With `Cc1cc2c(NCCCc3ccc(-c4cnc(F)c(C)c4)cc3)nc(-c3ccoc3)nc2s1` [Example 344, N-(3-[4-(6-fluoro-5-methylpyridin-3-yl)phenyl]propyl)-2-(furan-3-yl)-6-methylthieno[2,3-d]pyrimidin-4-amine] the IC50 was 74 nM. With `CCc1nc(NCCCc2ccc(-c3ccccn3)cc2)c2cc(C)sc2n1` [Example 368, 2-ethyl-6-methyl-N-(3-(4-(pyridin-2-yl)phenyl)propyl) thieno[2,3-d] pyrimidin-4-amine] the IC50 was 210 nM. `CCc1nc(NCCCc2ccc(-c3cnc(C(F)(F)F)cn3)cc2)c2cc(C)sc2n1` [Example 369, 2-ethyl-6-methyl-N-(3-(4-(5-(trifluoromethyl)pyrazin-2-yl)phenyl)propyl)thieno[2,3-d]pyrimidin-4-amine] showed an IC50 of 21 nM. For `CCc1nc(NCCCc2ccc(-c3ccc(C(F)(F)F)cn3)cc2)c2cc(C)sc2n1` [Example 370, 2-ethyl-6-methyl-N-(3-(4-(5-(trifluoromethyl)pyridin-2-yl)phenyl)propyl)thieno[2,3-d]pyrimidin-4-amine], the IC50 was 25 nM.
